The values below are quoted from earlier work in US7592331B2, “Macrocyclic factor VIIa inhibitors useful as anticoagulants” (Bristol-Myers Squibb Company, priority 2005, dated 2009).

The test system of data set [1] is patients undergoing total knee replacement.
Data set [2] has as its system patients undergoing coronary angioplasty.
Data set [3] has as its system patients with acute coronary syndromes.

With “recombinant nematode anticoagulant protein c2 [rNAPc2]”, the deep vein thrombosis result in data set [1] is recorded as “prevents deep vein thrombosis”. In addition, the systemic thrombin generation entry in data set [2] is reported as “reduces systemic thrombin generation”. Besides, in data set [3], the “magnitude and duration of ischemic events” value was “reduces magnitude and duration of ischemic events”.
